Tested on: 922993-354-T-J3-PDC complex spheroid viability
Assay: Anticancer human tumor 922993-354-T-J3-PDC patient-derived endometrial carcinoma cell line growth inhibition [POLQ]
Settings: for IC50: curve of first compound; for viability, T/C: stronger effect = lower value
In short: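 Three-cell-type spheroids modelling solid tumor plus stroma served as the readout system; POL inhibitors were tested individually and in combination, concentration ranges set by clinical Cmax where known.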

[1] = second compound 0.0316 µM, first compound 0.0316 µM
[2] = second compound 0.0316 µM, first compound 0.1 µM
[3] = second compound 0.0316 µM, first compound 0.316 µM
[4] = second compound 0.0316 µM, first compound 1 µM
[5] = second compound 0.0316 µM, first compound 3.16 µM
[6] = second compound 0.0316 µM, first compound 10 µM
[7] = second compound 0.1 µM, first compound 0.0316 µM
[8] = second compound 0.1 µM, first compound 0.1 µM
[9] = second compound 0.1 µM, first compound 0.316 µM
[10] = second compound 0.1 µM, first compound 1 µM
[11] = second compound 0.1 µM, first compound 3.16 µM
[12] = second compound 0.1 µM, first compound 10 µM
[13] = second compound 0.316 µM, first compound 0.0316 µM
[14] = second compound 0.316 µM, first compound 0.1 µM
[15] = second compound 0.316 µM, first compound 0.316 µM
[16] = second compound 0.316 µM, first compound 1 µM
[17] = second compound 0.316 µM, first compound 3.16 µM
[18] = second compound 0.316 µM, first compound 10 µM
[19] = second compound 1 µM, first compound 0.0316 µM
[20] = second compound 1 µM, first compound 0.1 µM
[21] = second compound 1 µM, first compound 0.316 µM
[22] = second compound 1 µM, first compound 1 µM
[23] = second compound 1 µM, first compound 3.16 µM
[24] = second compound 1 µM, first compound 10 µM
[25] = second compound 3.16 µM, first compound 0.0316 µM
[26] = second compound 3.16 µM, first compound 0.1 µM
[27] = second compound 3.16 µM, first compound 0.316 µM
[28] = second compound 3.16 µM, first compound 1 µM
[29] = second compound 3.16 µM, first compound 3.16 µM
[30] = second compound 3.16 µM, first compound 10 µM
[31] = second compound 10 µM, first compound 0.0316 µM
[32] = second compound 10 µM, first compound 0.1 µM
[33] = second compound 10 µM, first compound 0.316 µM
[34] = second compound 10 µM, first compound 1 µM
[35] = second compound 10 µM, first compound 3.16 µM
[36] = second compound 10 µM, first compound 10 µM
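Note: spheroids exposed to the agents for one week.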
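Throughout, for viability, T/C: 100% = DMSO vehicle control wells.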

## C=CC(=O)N1CCN(c2nc(=O)n(-c3c(C)ccnc3C(C)C)c3nc(-c4c(O)cccc4F)c(F)cc23)C(C)C1 (stereo not given) + Cc1cccc(N(C)C(=O)C2C(O)CCN2c2nc(C)cc(C(F)(F)F)c2C#N)c1
Second compound 0.0316 µM
  IC50: > 10 µM
Second compound 0.1 µM
  IC50: > 10 µM
Second compound 0.316 µM
  IC50: > 10 µM
Second compound 1 µM
  IC50: > 10 µM
Second compound 3.16 µM
  IC50: > 10 µM
Second compound 10 µM
  IC50: > 10 µM
[1]
  viability, T/C: 100%
[2]
  viability, T/C: 105%
[3]
  viability, T/C: 106%
[4]
  viability, T/C: 113%
[5]
  viability, T/C: 102%
[6]
  viability, T/C: 93.2%
[7]
  viability, T/C: 104%
[8]
  viability, T/C: 103%
[9]
  viability, T/C: 103%
[10]
  viability, T/C: 108%
[11]
  viability, T/C: 97.8%
[12]
  viability, T/C: 102%
[13]
  viability, T/C: 105%
[14]
  viability, T/C: 99.2%
[15]
  viability, T/C: 103%
[16]
  viability, T/C: 104%
[17]
  viability, T/C: 92.2%
[18]
  viability, T/C: 96.8%
[19]
  viability, T/C: 103%
[20]
  viability, T/C: 95.2%
[21]
  viability, T/C: 100%
[22]
  viability, T/C: 102%
[23]
  viability, T/C: 101%
[24]
  viability, T/C: 105%
[25]
  viability, T/C: 108%
[26]
  viability, T/C: 103%
[27]
  viability, T/C: 102%
[28]
  viability, T/C: 98.9%
[29]
  viability, T/C: 102%
[30]
  viability, T/C: 106%
[31]
  viability, T/C: 93.7%
[32]
  viability, T/C: 101%
[33]
  viability, T/C: 97.9%
[34]
  viability, T/C: 99.8%
[35]
  viability, T/C: 111%
[36]
  viability, T/C: 112%

## CC(C)n1c(=O)n(C)c2cnc3cc(F)c(-c4ccc(OCCCN5CCCCC5)nc4)cc3c21 + Cc1cccc(N(C)C(=O)C2C(O)CCN2c2nc(C)cc(C(F)(F)F)c2C#N)c1
Second compound 0.0316 µM
  IC50: > 10 µM
Second compound 0.1 µM
  IC50: > 10 µM
Second compound 0.316 µM
  IC50: > 10 µM
Second compound 1 µM
  IC50: > 10 µM
Second compound 3.16 µM
  IC50: > 10 µM
Second compound 10 µM
  IC50: > 10 µM
[1]
  viability, T/C: 101%
[2]
  viability, T/C: 99.8%
[3]
  viability, T/C: 99.9%
[4]
  viability, T/C: 106%
[5]
  viability, T/C: 97.4%
[6]
  viability, T/C: 66.9%
[7]
  viability, T/C: 95.3%
[8]
  viability, T/C: 108%
[9]
  viability, T/C: 108%
[10]
  viability, T/C: 97.9%
[11]
  viability, T/C: 81.3%
[12]
  viability, T/C: 74.4%
[13]
  viability, T/C: 114%
[14]
  viability, T/C: 109%
[15]
  viability, T/C: 104%
[16]
  viability, T/C: 102%
[17]
  viability, T/C: 88.2%
[18]
  viability, T/C: 77%
[19]
  viability, T/C: 114%
[20]
  viability, T/C: 112%
[21]
  viability, T/C: 110%
[22]
  viability, T/C: 99.7%
[23]
  viability, T/C: 90.7%
[24]
  viability, T/C: 68.9%
[25]
  viability, T/C: 100%
[26]
  viability, T/C: 109%
[27]
  viability, T/C: 102%
[28]
  viability, T/C: 90.8%
[29]
  viability, T/C: 95.5%
[30]
  viability, T/C: 80.3%
[31]
  viability, T/C: 101%
[32]
  viability, T/C: 104%
[33]
  viability, T/C: 107%
[34]
  viability, T/C: 92.4%
[35]
  viability, T/C: 92.3%
[36]
  viability, T/C: 70.5%

## CCc1cc2c(N3CCc4c(cc(Cn5ccnc5)cc4-c4cn(C)nc4C(F)(F)F)C3=O)cc(C)nc2c(OC)n1 + Cc1cccc(N(C)C(=O)C2C(O)CCN2c2nc(C)cc(C(F)(F)F)c2C#N)c1
Second compound 0.0316 µM
  IC50: > 10 µM
Second compound 0.1 µM
  IC50: > 10 µM
Second compound 0.316 µM
  IC50: > 10 µM
Second compound 1 µM
  IC50: > 10 µM
Second compound 3.16 µM
  IC50: > 10 µM
Second compound 10 µM
  IC50: > 10 µM
[1]
  viability, T/C: 101%
[2]
  viability, T/C: 105%
[3]
  viability, T/C: 109%
[4]
  viability, T/C: 107%
[5]
  viability, T/C: 102%
[6]
  viability, T/C: 91.7%
[7]
  viability, T/C: 109%
[8]
  viability, T/C: 101%
[9]
  viability, T/C: 108%
[10]
  viability, T/C: 105%
[11]
  viability, T/C: 106%
[12]
  viability, T/C: 97%
[13]
  viability, T/C: 103%
[14]
  viability, T/C: 103%
[15]
  viability, T/C: 107%
[16]
  viability, T/C: 108%
[17]
  viability, T/C: 110%
[18]
  viability, T/C: 98.7%
[19]
  viability, T/C: 102%
[20]
  viability, T/C: 103%
[21]
  viability, T/C: 107%
[22]
  viability, T/C: 105%
[23]
  viability, T/C: 108%
[24]
  viability, T/C: 101%
[25]
  viability, T/C: 103%
[26]
  viability, T/C: 104%
[27]
  viability, T/C: 106%
[28]
  viability, T/C: 105%
[29]
  viability, T/C: 104%
[30]
  viability, T/C: 99.7%
[31]
  viability, T/C: 93.4%
[32]
  viability, T/C: 104%
[33]
  viability, T/C: 105%
[34]
  viability, T/C: 102%
[35]
  viability, T/C: 107%
[36]
  viability, T/C: 98.2%

## CCc1cc2c(N3CCc4c(cc(Cn5ccnc5)cc4-c4cn(C)nc4C(F)(F)F)C3=O)ccnc2c(OC)n1 + Cc1cccc(N(C)C(=O)C2C(O)CCN2c2nc(C)cc(C(F)(F)F)c2C#N)c1
Second compound 0.0316 µM
  IC50: > 10 µM
Second compound 0.1 µM
  IC50: > 10 µM
Second compound 0.316 µM
  IC50: > 10 µM
Second compound 1 µM
  IC50: > 10 µM
Second compound 3.16 µM
  IC50: > 10 µM
Second compound 10 µM
  IC50: > 10 µM
[1]
  viability, T/C: 105%
[2]
  viability, T/C: 107%
[3]
  viability, T/C: 107%
[4]
  viability, T/C: 108%
[5]
  viability, T/C: 110%
[6]
  viability, T/C: 94.1%
[7]
  viability, T/C: 107%
[8]
  viability, T/C: 106%
[9]
  viability, T/C: 104%
[10]
  viability, T/C: 107%
[11]
  viability, T/C: 105%
[12]
  viability, T/C: 99%
[13]
  viability, T/C: 104%
[14]
  viability, T/C: 100%
[15]
  viability, T/C: 107%
[16]
  viability, T/C: 110%
[17]
  viability, T/C: 105%
[18]
  viability, T/C: 99.5%
[19]
  viability, T/C: 101%
[20]
  viability, T/C: 99.4%
[21]
  viability, T/C: 108%
[22]
  viability, T/C: 109%
[23]
  viability, T/C: 102%
[24]
  viability, T/C: 107%
[25]
  viability, T/C: 102%
[26]
  viability, T/C: 107%
[27]
  viability, T/C: 106%
[28]
  viability, T/C: 106%
[29]
  viability, T/C: 107%
[30]
  viability, T/C: 98.4%
[31]
  viability, T/C: 104%
[32]
  viability, T/C: 98.4%
[33]
  viability, T/C: 98.8%
[34]
  viability, T/C: 102%
[35]
  viability, T/C: 98.5%
[36]
  viability, T/C: 102%

## COc1cc2cc(C(=O)CCC(=O)O)sc2cc1OC + Cc1cccc(N(C)C(=O)C2C(O)CCN2c2nc(C)cc(C(F)(F)F)c2C#N)c1
Second compound 0.0316 µM
  IC50: > 10 µM
Second compound 0.1 µM
  IC50: > 10 µM
Second compound 0.316 µM
  IC50: > 10 µM
Second compound 1 µM
  IC50: > 10 µM
Second compound 3.16 µM
  IC50: > 10 µM
Second compound 10 µM
  IC50: > 10 µM
[1]
  viability, T/C: 101%
[2]
  viability, T/C: 103%
[3]
  viability, T/C: 101%
[4]
  viability, T/C: 103%
[5]
  viability, T/C: 105%
[6]
  viability, T/C: 83.8%
[7]
  viability, T/C: 105%
[8]
  viability, T/C: 105%
[9]
  viability, T/C: 97%
[10]
  viability, T/C: 102%
[11]
  viability, T/C: 107%
[12]
  viability, T/C: 90.6%
[13]
  viability, T/C: 102%
[14]
  viability, T/C: 105%
[15]
  viability, T/C: 101%
[16]
  viability, T/C: 104%
[17]
  viability, T/C: 108%
[18]
  viability, T/C: 91.3%
[19]
  viability, T/C: 96.8%
[20]
  viability, T/C: 106%
[21]
  viability, T/C: 105%
[22]
  viability, T/C: 104%
[23]
  viability, T/C: 102%
[24]
  viability, T/C: 92.3%
[25]
  viability, T/C: 102%
[26]
  viability, T/C: 101%
[27]
  viability, T/C: 105%
[28]
  viability, T/C: 103%
[29]
  viability, T/C: 110%
[30]
  viability, T/C: 90.3%
[31]
  viability, T/C: 104%
[32]
  viability, T/C: 98%
[33]
  viability, T/C: 101%
[34]
  viability, T/C: 99.6%
[35]
  viability, T/C: 109%
[36]
  viability, T/C: 93.7%

Source: PubChem BioAssay AID1963830 (Molecular Pharmacology Branch, DTP, NCI, 2024)
